Experimental data as given in patent US20240109887A1 (Viva Star Biosciences (Suzhou) Co., Ltd., priority 2021, published 2024).

How the values were obtained:
KRAS G12D/SOS1 [1] = target: T1, KRAS G12D/SOS1 (Homo sapiens, UniProt Q07889); assay: biochemical
T1 sequence (Q07889 1-1333): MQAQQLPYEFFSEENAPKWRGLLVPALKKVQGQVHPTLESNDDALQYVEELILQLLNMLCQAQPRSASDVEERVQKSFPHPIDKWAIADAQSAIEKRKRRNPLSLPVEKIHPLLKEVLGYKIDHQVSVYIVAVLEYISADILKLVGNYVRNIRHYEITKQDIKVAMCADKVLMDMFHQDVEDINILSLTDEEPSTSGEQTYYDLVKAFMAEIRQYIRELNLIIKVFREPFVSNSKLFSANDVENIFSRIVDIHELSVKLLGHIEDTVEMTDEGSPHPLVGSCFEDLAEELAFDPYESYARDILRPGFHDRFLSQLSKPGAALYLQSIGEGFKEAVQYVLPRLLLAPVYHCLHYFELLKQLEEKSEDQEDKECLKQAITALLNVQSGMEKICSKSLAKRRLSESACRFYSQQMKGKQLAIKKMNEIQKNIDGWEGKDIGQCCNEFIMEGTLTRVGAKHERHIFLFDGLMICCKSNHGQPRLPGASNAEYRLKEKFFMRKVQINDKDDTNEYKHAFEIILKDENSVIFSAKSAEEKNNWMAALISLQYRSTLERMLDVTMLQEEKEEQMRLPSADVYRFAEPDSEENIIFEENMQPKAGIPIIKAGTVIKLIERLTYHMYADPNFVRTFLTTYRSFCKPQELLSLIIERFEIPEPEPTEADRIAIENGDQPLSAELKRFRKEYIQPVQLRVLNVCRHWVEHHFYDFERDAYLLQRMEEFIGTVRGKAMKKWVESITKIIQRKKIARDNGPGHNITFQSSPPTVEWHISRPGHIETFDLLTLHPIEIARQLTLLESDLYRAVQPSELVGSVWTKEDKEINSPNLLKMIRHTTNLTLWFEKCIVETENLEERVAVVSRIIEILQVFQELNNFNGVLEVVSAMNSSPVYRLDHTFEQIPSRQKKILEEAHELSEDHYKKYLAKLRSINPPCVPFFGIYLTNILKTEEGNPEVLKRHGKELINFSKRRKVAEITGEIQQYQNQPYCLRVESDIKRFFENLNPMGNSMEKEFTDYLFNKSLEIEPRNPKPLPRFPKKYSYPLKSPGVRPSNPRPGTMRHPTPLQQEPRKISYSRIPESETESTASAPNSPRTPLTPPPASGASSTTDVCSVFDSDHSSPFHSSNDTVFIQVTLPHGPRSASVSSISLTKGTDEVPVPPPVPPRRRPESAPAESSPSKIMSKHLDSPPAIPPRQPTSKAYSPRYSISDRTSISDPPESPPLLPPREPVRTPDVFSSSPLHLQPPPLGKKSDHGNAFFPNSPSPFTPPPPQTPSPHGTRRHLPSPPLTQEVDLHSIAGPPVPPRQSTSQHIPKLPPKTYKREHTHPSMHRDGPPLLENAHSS

KRAS G12C/SOS1 = target: T2, KRAS G12C/SOS1 (Homo sapiens, UniProt Q07889); assay: biochemical
T2 sequence (Q07889 1-1333): T1 sequence (Q07889 1-1333)

KRAS-WT/SOS1 [2] = target: T3, KRAS-WT/SOS1 (Homo sapiens, UniProt Q07889); assay: biochemical
T3 sequence (Q07889 1-1333): T1 sequence (Q07889 1-1333)

KRAS G12D/SOS1 [3] = target: T1, KRAS G12D/SOS1; assay: KRAS G12D/SOS1 binding assay (HTRF); conditions: Tag2-KRAS G12D with Tag1-SOS1, 10 μM GTP
KRAS-WT/SOS1 [4] = target: T3, KRAS-WT/SOS1; assay: KRAS-WT/SOS1 binding assay (HTRF); conditions: Tag2-KRAS-WT with Tag1-SOS1, 10 μM GTP

SMILES | IC50 (KRAS G12D/SOS1 [1]) [nM] | IC50 (KRAS G12C/SOS1) [nM] | IC50 (KRAS-WT/SOS1 [2]) [nM] | other results
C[C@@H](NC(=O)c1cn(C2CCOCC2)c(=O)c2c[nH]nc12)c1cccc(C(F)(F)CO)c1 [Example 1, (R)—N-(1-(3-(1,1-difluoro-2-hydroxyethyl)phenyl)ethyl)-4-oxo-5-(tetrahydro-2H-pyran-4-yl)-4,5-dihydro-2H-pyrazolo[4,3-c]pyridine-7-carboxamide] | < 100 | < 100 | – | –
C[C@@H](NC(=O)c1cn(C2CCOCC2)c(=O)c2c[nH]nc12)c1cccc(C(F)F)c1F [Example 3, (R)-N-(1-(3-(difluoromethyl)-2-fluorophenyl)ethyl)-4-oxo-5-(tetrahydro-2H-pyran-4-yl)-4,5-dihydro-2H-pyrazolo[4,3-c]pyridine-7-carboxamide] | < 100 | < 100 | < 100 | –
C[C@@H](NC(=O)c1cn(C2(C)CC2)c(=O)c2cn[nH]c12)c1cccc(C(F)(F)F)n1 [Example 8, (R)-5-(1-methylcyclopropyl)-4-oxo-N-(1-(6-(trifluoromethyl)pyridin-2-yl)ethyl)-4,5-dihydro-1H-pyrazolo[4,3-c]pyridine-7-carboxamide] | – | – | – | Activity Data in Kras: SOS1 Assay, G12D (KRAS G12D/SOS1 [3]): C (C: 500~5 μM); Activity Data in Kras: SOS1 Assay, Wild Type (KRAS-WT/SOS1 [4]): C (C: 500~5 μM)
C[C@@H](NC(=O)c1cn([C@H]2CC[C@@H](C(=O)N(C)CCO)CC2)c(=O)c2c[nH]nc12)c1cccc2c1CCC2(F)F [Example 11, N—((R)-1-(1,1-difluoro-2,3-dihydro-1H-inden-4-yl)ethyl)-5-((1s,4S)-4-((2-hydroxyethyl)(methyl)carbamoyl)cyclohexyl)-4-oxo-4,5-dihydro-2H-pyrazolo[4,3-c]pyridine-7-carboxamide] | – | – | – | Activity Data in Kras: SOS1 Assay, G12D (KRAS G12D/SOS1 [3]): C (C: 500~5 μM); Activity Data in Kras: SOS1 Assay, Wild Type (KRAS-WT/SOS1 [4]): C (C: 500~5 μM)
COc1c(C2CCOCC2)cc(C(=O)N[C@H](C)c2cccc3c2CCC3(F)F)c2n[nH]cc12 [Example 16, N-[(1R)-1-(1,1-difluoro-2,3-dihydro-1H-inden-4-yl)ethyl]-4-methoxy-5-(oxan-4-yl)-2H-indazole-7-carboxamide] | – | 100 to 500 | – | –
COc1c(-c2ccc(=O)n(C)c2)cc(C(=O)N[C@H](C)c2cccc3c2CCC3(F)F)c2n[nH]cc12 [Example 17, N-[(1R)-1-(1,1-difluoro-2,3-dihydro-1H-inden-4-yl)ethyl]-4-methoxy-5-(1-methyl-6-oxo-1,6-dihydropyridin-3-yl)-2H-indazole-7-carboxamide] | – | < 100 | – | –
Cc1nc(N[C@H](C)c2cccc(C(F)(F)CO)c2)c2c(n1)N(C)C(=O)N(C1CCOCC1)C2 [Example 25, (R)-5-((1-(3-(1,1-difluoro-2-hydroxyethyl)phenyl)ethyl)amino)-1,7-dimethyl-3-(tetrahydro-2H-pyran-4-yl)-3,4-dihydropyrimido[4,5-d]pyrimidin-2(1H)-one] | – | 100 to 500 | 100 to 500 | –
Cc1nc(N[C@H](C)c2cccc3c2CCC3(F)F)c2c(n1)N(C)C(=O)N(C1CCOCC1)C2 [Example 26, (R)-5-((1-(1,1-difluoro-2,3-dihydro-1H-inden-4-yl)ethyl)amino)-1,7-dimethyl-3-(tetrahydro-2H-pyran-4-yl)-3,4-dihydropyrimido[4,5-d]pyrimidin-2(1H)-one] | – | 100 to 500 | – | –
COc1c(OC2CC(F)(F)C2)cc(C(=O)N[C@H](C)c2cccc3c2CCC3(F)F)c2n[nH]cc12 [Example 31, (R)-N-(1-(1,1-difluoro-2,3-dihydro-1H-inden-4-yl)ethyl)-5-(3,3-difluorocyclobutoxy)-4-methoxy-2H-indazole-7-carboxamide] | – | – | – | Activity Data in Kras: SOS1 Assay, G12D (KRAS G12D/SOS1 [3]): C (C: 500~5 μM); Activity Data in Kras: SOS1 Assay, Wild Type (KRAS-WT/SOS1 [4]): C (C: 500~5 μM)
COc1c(C2CCNCC2)cc(C(=O)N[C@H](C)c2cccc(C(F)(F)CO)c2)c2[nH]ncc12 [Example 35, N-[(1R)-1-[3-(1,1-difluoro-2-hydroxyethyl)phenyl]ethyl]-4-methoxy-5-(piperidin-4-yl)-1H-indazole-7-carboxamide] | < 100 | – | < 100 | –
COc1c(C2CCCNC2)cc(C(=O)N[C@H](C)c2cccc(C(F)(F)CO)c2)c2[nH]ncc12 (stereo partly drawn) [Example 36, N—((R)-1-(3-(1,1-difluoro-2-hydroxyethyl)phenyl)ethyl)-4-methoxy-5-(piperidin-3-yl)-1H-indazole-7-carboxamide] | < 100 | – | < 100 | –
COc1c(C2CCCN(C)C2)cc(C(=O)N[C@H](C)c2cccc(C(F)(F)CO)c2)c2[nH]ncc12 (stereo partly drawn) [Example 37, N—((R)-1-(3-(1,1-difluoro-2-hydroxyethyl)phenyl)ethyl)-4-methoxy-5-(1-methylpiperidin-3-yl)-1H-indazole-7-carboxamide] | < 100 | – | < 100 | –
C[C@@H](NC(=O)c1cn(C2CCOCC2)c(=O)c2cc[nH]c12)c1cccc2c1CCC2(F)F [Example 38, (R)—N-(1-(1,1-difluoro-2,3-dihydro-1H-inden-4-yl)ethyl)-4-oxo-5-(tetrahydro-2H-pyran-4-yl)-4,5-dihydro-1H-pyrrolo[3,2-c]pyridine-7-carboxamide] | – | < 100 | – | –
C[C@@H](NC(=O)c1cn(C2CCOCC2)c(=O)c2cc[nH]c12)c1cccc(C(F)(F)CO)c1 [Example 39, (R)—N-(1-(3-(1,1-difluoro-2-hydroxyethyl)phenyl)ethyl)-4-oxo-5-(tetrahydro-2H-pyran-4-yl)-4,5-dihydro-1H-pyrrolo[3,2-c]pyridine-7-carboxamide] | – | < 100 | – | –
C[C@@H](NC(=O)c1cn(C2CCOCC2)c(=O)c2cc[nH]c12)c1cccc(C(F)F)c1F [Example 40, (R)—N-(1-(3-(difluoromethyl)-2-fluorophenyl)ethyl)-4-oxo-5-(tetrahydro-2H-pyran-4-yl)-4,5-dihydro-1H-pyrrolo[3,2-c]pyridine-7-carboxamide] | – | < 100 | – | –
C[C@@H](NC(=O)c1cn(C2(C)CC2)c(=O)c2cc[nH]c12)c1cccc2c1CCC2(F)F [Example 41, (R)—N-(1-(1,1-difluoro-2,3-dihydro-1H-inden-4-yl)ethyl)-5-(1-methylcyclopropyl)-4-oxo-4,5-dihydro-1H-pyrrolo[3,2-c]pyridine-7-carboxamide] | < 100 | – | < 100 | –
C[C@@H](NC(=O)c1cn(C2(C)CC2)c(=O)c2cc[nH]c12)c1cccc(C(F)(F)CO)c1 [Example 42, (R)—N-(1-(3-(1,1-difluoro-2-hydroxyethyl)phenyl)ethyl)-5-(1-methylcyclopropyl)-4-oxo-4,5-dihydro-1H-pyrrolo[3,2-c]pyridine-7-carboxamide] | < 100 | – | < 100 | –
COc1c(N2CCOCC2)nc(C(=O)N[C@H](C)c2cccc3c2CCC3(F)F)c2n[nH]cc12 [Example 44, (R)—N-(1-(1,1-difluoro-2,3-dihydro-1H-inden-4-yl)ethyl)-4-methoxy-5-morpholino-2H-pyrazolo[3,4-c]pyridine-7-carboxamide] | – | – | – | Activity Data in Kras: SOS1 Assay, G12D (KRAS G12D/SOS1 [3]): C (C: 500~5 μM); Activity Data in Kras: SOS1 Assay, Wild Type (KRAS-WT/SOS1 [4]): C (C: 500~5 μM)
